Source: patent publication US20170368134A1, “PROTEASOME INHIBITORS FOR TREATING A DISORDER RELATED TO AN ACCUMULATION OF NON-DEGRADED ABNORMAL PROTEIN OR A CANCER” (UNIVERSITÉ D'AIX-MARSEILLE, priority 2015, published 2017)
Peptide text beside a SMILES is read from it. * marks the point of attachment. Cbz = O=C(OCc1ccccc1)*

Tests used:
lamin C [1] = assay: Western blot of lamin C protein in HGPS fibroblasts; assay type: cell-based, human; details: 48 h treatment with MG132 (10 μM)
Experimental: Total fibroblast proteins were extracted in 200 μL of NP40 Cell Lysis buffer (Invitrogen, Carlsbad, Calif.) containing Protease and Phosphatase Inhibitor Cocktail (Thermo Scientific). Alternatively, cells were lysed with urea (8 M urea, 5 mM dithiothreitol, 150 mM NaCl, 50 mM Tris-Cl pH 7.5, protease and phosphatase Inhibitor Cocktail (Thermo Scientific)). Cells were sonicated twice (30 sec each), incubated at 4° C. for 30 minutes and then centrifuged at 10,000 g for 10 minutes. Protein concentration was evaluated with the bicinchoninic acid technique (Pierce BCA Protein Assay Kit), absorbance at 562 nm is measured using nanodrop 1000 (Thermo Fisher Scientific Inc.) Equal amounts of proteins (40 μg) were loaded onto 10% Tis-Glycine gel (Criterion™ XT precast gel) using XT Tricine running Buffer (Biorad, USA). After electrophoresis, gels were electro transferred onto nitrocellulose membranes or Immobilon-FL polyvinylidene fluoride membranes (Millipore), blocked in Odyssey Blocking Buffer diluted 1:1 in PBS for 1 hour at room temperature, and incubated overnight at 4° C. or 2 hours at room temperature with various primary antibodies. […]

progerin mRNA = assay: qRT-PCR of progerin transcripts in HGPS fibroblasts; assay type: cell-based, human; details: 10 μM MG132, time dependent, relative to DMSO
Experimental: Total RNA was isolated using the RNeasy plus extraction kit (Qiagen, Valencia, Calif.). 1 μg of RNA was reverse transcribed using the High Capacity cDNA Reverse Transcription Kit (Applied Biosystems). Real time PCR amplification was carried out with the TaqMan® Gene Expression Master Mix (Applied Biosystems) on a LightCycler 480 (Roche, Germany) using pre-designed primers for GAPDH (Hs00266705_g1), Progerin (F: […] (SEQ ID NO:3) R: […] (SEQ ID NO:4) and probe: […] (SEQ ID NO:5)), Lamin A (F: […] (SEQ ID NO:6) R: […] (SEQ ID NO:7) and probe: […] (SEQ ID NO:8)) and lamin C (F: […] (SEQ ID NO:9) R: […] (SEQ ID NO:10) and probe: […] (SEQ ID NO:11)) (Applied Biosystems) using the program: UNG incubation at 50° C. for 2 minutes, initial denaturation at 95° C. for 10 minutes, 40 cycles of amplification: denaturation at 95° C. for 15 seconds and annealing at 60° C. for 1 minute. All PCR reactions were performed in triplicate. Threshold cycle (Ct) values were used to calculate relative mRNA expression by the 2-ΔΔ^T relative quantification method with normalization to GAPDH expression.

SRSF-1 = assay: Western blot of SRSF-1 in HGPS fibroblasts; assay type: cell-based, human; details: 48 h treatment of HGPS fibroblasts with MG132 (10 μM)
Experimental: Total fibroblast proteins were extracted in 200 μL of NP40 Cell Lysis buffer (Invitrogen, Carlsbad, Calif.) containing Protease and Phosphatase Inhibitor Cocktail (Thermo Scientific). Alternatively, cells were lysed with urea (8 M urea, 5 mM dithiothreitol, 150 mM NaCl, 50 mM Tris-Cl pH 7.5, protease and phosphatase Inhibitor Cocktail (Thermo Scientific)). Cells were sonicated twice (30 sec each), incubated at 4° C. for 30 minutes and then centrifuged at 10,000 g for 10 minutes. Protein concentration was evaluated with the bicinchoninic acid technique (Pierce BCA Protein Assay Kit), absorbance at 562 nm is measured using nanodrop 1000 (Thermo Fisher Scientific Inc.) Equal amounts of proteins (40 μg) were loaded onto 10% Tis-Glycine gel (Criterion™ XT precast gel) using XT Tricine running Buffer (Biorad, USA). After electrophoresis, gels were electro transferred onto nitrocellulose membranes or Immobilon-FL polyvinylidene fluoride membranes (Millipore), blocked in Odyssey Blocking Buffer diluted 1:1 in PBS for 1 hour at room temperature, and incubated overnight at 4° C. or 2 hours at room temperature with various primary antibodies. Blots were washed with TBS-T buffer [20 mM tris (pH 7.4), 150 mM NaCl, and 0.05% Tween 20] and incubated with 1:10,000 IR-Dye 800-conjugated secondary donkey anti-goat or IR-Dye 700-conjugated secondary anti-mouse antibodies (LI-COR Biosciences) in Odyssey blocking buffer (LI-COR Biosciences). For IR-Dye 800 and IR-Dye 700 detection, an Odyssey Infrared Imaging System (LI-COR Biosciences) was used. GAPDH, α-tubulin or β-actin were used as a total cellular protein loading control.

lamin C [2] = assay: Intramuscular MG132 in Lmna G609G/G609G mice, lamin C in gastrocnemius muscle; assay type: in vivo, mouse
Experimental: (§1) (A) Lamin A, progerin, lamin C and SRSF-1 specific bands, corresponding to DMSO-treated left muscle (−) and 1 μg/Kg MG132-treated right muscle (+), were quantified by ImageJ software and their expression levels were normalized to GAPDH values.
(§2) Knock-in mouse model (Lmna^G609G/G609G) carrying the c.1827C>T (p.Gly609Gly) mutation in the endogenous Lmna gene, corresponding to the human HGPS mutation c.1824C>T (p.Gly609Gly) have been described previously (31). MG132 (1 or 10 μg/Kg body weight) was injected under isoflurane anesthesia into the right gastrocnemius muscle of […] homozygous knock-in mice (Lmna^G609G/G609G) 3 times per week for 2 weeks. Contralateral muscle served as control (DMSO). MG132 was dissolved in dimethyl sulfoxide (DMSO) and then diluted in 100 μl sterile phosphate-buffered saline (PBS) for intramuscular injection. […] Animal experiments have been carried out in compliance with the European guidelines for the care and use of laboratory animals (EU directive 2010/63/EU) and in accordance with the recommendations provided by the guide for the care and use of the laboratory animals of the French national Institute for Health and Medical Research (INSERM) and the ethical committee of Aix-Marseille University.

lamin A = assay: Intramuscular MG132 in Lmna G609G/G609G mice, lamin A in gastrocnemius muscle; assay type: in vivo, mouse
Experimental: as §1, §2

[3] = tested on: wild-type first instar larvae; assay: Toxicity of MG132 fed to Drosophila larvae; assay type: in vivo; details: 600 μM MG132 (in 0.2% DMSO) in the fly medium, 25° C.
Experimental: (A) The toxicity of MG132 fed to larvae was determined by transferring 80 wild-type first instar larvae into vials containing 5 ml of instant Drosophila medium reconstituted either with increasing concentrations of drug in DMSO, or DMSO alone.
Drug supplemented food was prepared as follows. Instant Drosophila medium (Carolina Biological Supply Company) was reconstituted in each vial with a solution of 1% yeast in water, supplemented with either increasing concentrations of drug solubilized in DMSO (dimethyl sulfoxide), or DMSO alone. MG132 was purchased from Santa Cruz Biotechnology (SC-201270). Each vial contained 5 ml or 2.5 ml of reconstituted medium, to raise larvae or adults, respectively. Individuals were fed with the drug from larval stages. 70 to 80 first instar larvae were transferred per vial and developed in the same vial up to adulthood; adults were transferred in a new vial with the same concentration of drug. To determine drug toxicity, 80 first instar larvae were transferred into vials containing drug- or DMSO alone-supplemented medium. Individuals reaching adulthood were scored. Abnormal wing posture was quantified by collecting adult males at birth, pooling five males per vial and scoring abnormal wing position each day by direct observation of the flies through the vials, without anesthesia.

[4] = 1 μg/Kg intramuscular, change not significant
[5] = 10 μg/kg body weight intramuscular

## CC(C)C[C@@H](C=O)NC(=O)[C@H](CC(C)C)NC(=O)[C@H](CC(C)C)NC(=O)OCc1ccccc1 [MG132, Z-Leu-Leu-Leu-al] (Cbz-Leu-Leu-Leu-aldehyde)
Lamin C [1]
  lamin C protein levels: increased
Progerin mRNA
  progerin mRNA expression: almost extinguished progerin mRNA expression
SRSF-1
  SRSF-1 levels: significant decrease of SRSF-1 levels
Lamin C [2]; [4]
  lamin C level in treated muscle: decrease of lamin C
Lamin C [2]; [5]
  lamin C level in treated muscle: decrease in lamin C
Lamin A; [4]
  lamin A level in treated muscle: small increase in lamin A
Lamin A; [5]
  lamin A level in treated muscle: remain constant or increase slightly
[3]
  viability (flies reaching adulthood): not detrimental for viability
